In patent US20230091810A1, “FIRST-IN-CLASS OF SHMT2 AND MTHFD2 INHIBITORS AS ANTITUMOR AGENTS” (Duquesne University of the Holy Spirit, priority 2017, published 2023):
Where two headings read alike, the source gives them in different places.

Experiments:
RT16 (FR alpha) (CHO) = test: proliferation assay, RT16 CHO cells expressing FR alpha only; type: cell-based, Chinese hamster; conditions: folate-/glycine-free RPMI1640 with 25 nM leucovorin, 96 h, read-out: IC50s (SE) RT16 (FR alpha) (CHO)
Experimental: (§1) Proliferation assays were performed with engineered Chinese hamster ovary (CHO) cell lines R2 (transporter-null), PC43-10 (expresses RFC only), RT16 (FRα only), and R2/PCFT4 (PCFT only) cultured in folate-/glycine-free RPMI1640 supplemented with 25 nM leucovorin. Additional results are shown for HCT116 (colon tumor cells (CTC)), IGROV1 (epithelial ovarian cancer (EOC) cells), H460 (non-small cell lung cancer (NSCLC) cells), MIAPaCa-2 (pancreatic cancer (PaC) cells), and HPAC (PaC).
(§2) For proliferation assays with the CHO cell lines, the cells were treated with drugs (0-1 µM) in a 96-well plate (2000 cells/well) in glycine-free, nucleoside-free folate-free RPMI supplemented with 10% dialyzed fetal bovine serum, 1% penicillin/streptomycin, 2 mM L-glutamine, and 25 nM leucovorin (final volume 200 µL) over a 96 h incubation period at 37° C. with 5% CO2. The drugs were dissolved in DMSO; an equivalent amount of DMSO was added to the control (no addition) samples. To quantify viable cells, the media was removed and plates were washed once with 100 µL Dulbecco’s Phosphate-Buffered Saline (PBS), after which 100 µL PBS and 20 µL Cell Titer-blue (Promega) were added. Relative cell numbers were proportional to the fluorescence measured with a fluorescence plate reader (590 nm emission, 560 nm excitation). Background fluorescence (cell-free wells treated with Cell Titer-blue) was subtracted and these corrected values were normalized to results for cells treated in an identical manner without drugs.

HCT116 cells = test: targeted metabolomics with [2,3,3-2H]serine tracer, HCT116 cells; type: cell-based, human; conditions: 10 µM drug; for increase of total serine: HCT116 WT cells, relative to WT controls; for M+1 serine: WT HCT116 cells
Source text: Identification of the mitochondrial enzyme target for AGF291, AGF320, and AGF347 by targeted metabolomics. […] The cells were processed for LC-MS analyses of total serine, and of M+3, M+2, M+1, and M+0 (unlabeled) serine (where M+n represents species with n deuterium atoms). The results with the drug-treated cells were compared to those for untreated cells. For WT HCT116 cells, the results were compared to those for SHMT2 KO, MTHFD2 KO, and SHMT1 KO cells (KO of SHMT2, MTHFD2, and SHMT1, respectively (20)). For H460 cells, controls included non-targeted control (NTC) and SHMT2 shRNA knockdown (KD) cells.
Targeted Metabolomics. Targeted metabolomics were performed essentially as previously described (47, 53). Briefly, cells (H460, HCT116, MIA PaCa-2) (1 million cells /dish for vehicle-treated samples, 1.5 million cells/dish for drug-treated samples) were seeded in triplicate 60 mm dishes in 5 ml of folate-free RPMI (contains glycine and unlabeled serine) supplemented with 10% dialyzed fetal bovine serum, 1% penicillin/streptomycin, 2 mM L-glutamine, and 25 nM leucovorin. Cells were allowed to adhere for 24 h. […] After 16 h, the cells were washed with PBS (3×), the media was replaced with folate- and serine-free culture media (containing glycine) supplemented with 10% dialyzed fetal bovine serine, 25 nM leucovorin, and [2,3,3-^2H]serine (250 µM), including 10 µM drug or DMSO vehicle. The cells were incubated for 24 h. All incubations were at 37° C. with 5% CO2. The media was aspirated, and cells were washed (3×) rapidly (< 30 s) with 5 mL ice-cold PBS; metabolism was quickly quenched with methanol:water (80:20) at -80° C. Cells were allowed to rock on dry ice for 10 min to cover the entire dish with 80:20 methanol:water (at -80° C.), then harvested by scraping and pipetting into 1.5 mL Eppendorf tubes. The tubes were centrifuged (4° C., 14000 RPM, 10 min) to fully extract metabolites into the methanol:water supernatant. The protein pellet was used for normalization. The supernatants were collected and analyzed by reversed-phase ion-pairing chromatography coupled with negative-mode electrospray-ionization high-resolution mass spectrometry on a stand-alone Orbitrap (ThermoFisher Exactive). Raw metabolite values were adjusted to correct for normal ion distributions and normalized to total proteins from the post-extraction pellet by solubilizing with 0.5 N NaOH and using the Folin-phenol protein method (13). Values below the limit of detection were assigned a value of 100 for normalization. Results for drug-treated and SHMT2 KD cells were normalized to vehicle-treated WT ± formate or NTC ± formate samples, as appropriate.

PC43-10 (RFC) (CHO) = test: proliferation assay, PC43-10 CHO cells expressing RFC only; type: cell-based, Chinese hamster; conditions: folate-/glycine-free RPMI1640 with 25 nM leucovorin, 96 h, drug 0-1000 nM, read-out: IC50s (SE) PC43-10 (RFC) (CHO)
Experimental: as §1
Cell culture and proliferation/protection assays. The HCT116 cell lines including the serine hydroxymethyltransferase (SHMT) 1, SHMT2, and methylene THF dehydrogenase 2 (MTHFD2) knockout (KO) cells were previously described (47,53). The H460 cell line was obtained from the American Type Culture Collection (Manassas, VA), whereas the MIA PaCa-2 cells were provided by Dr. Yubin Ge (Karmanos Cancer Institute). Cell lines were verified by STR analysis by Genetica DNA Laboratories (Burlington, NC). MTXRIIOua^R2-4 (i.e. R2) Chinese hamster ovary (CHO) cells were generously provided by Dr. Wayne Flintoff (University of Western Ontario) (54). From this parental R2 cell line, human RFC and PCFT were individually transfected to generate the isogenic CHO cell lines designated PC43-10 (RFC) and R2/PCFT4 (PCFT) (55-57). Human tumor cell lines were cultured in folate-free RPMI supplemented with 10% dialyzed fetal bovine serum (Sigma-Aldrich), 1% penicillin/streptomycin solution, 2 mM L-glutamine, and 25 nM leucovorin in a humidified atmosphere at 37° C. in the presence of 5% CO2 and 95% air. The CHO cell lines were cultured in alpha-minimal essential medium (alpha-MEM) supplemented with 10% bovine calf serum, 1% penicillin/streptomycin solution, and 2 mM L-glutamine. Additionally, the transfected CHO cell lines (i.e. R2/PCFT4 and PC43-10) were maintained under continuous selection with 1 mg/ml of G418.
as §2, with “The drugs were dissolved in DMSO; an equivalent amount of DMSO was added to the control (no addition) samples.” left out

| Molecule | IC50 (RT16 (FR alpha) (CHO)) [nM] | increase of total serine (HCT116 cells) | M+1 serine (HCT116 cells) | IC50 (PC43-10 (RFC) (CHO)) [nM] | IC50 (RT16 (FR alpha) (CHO); Cricetulus griseus, RT16) [nM] | IC50 (PC43-10 (RFC) (CHO); Cricetulus griseus, PC43-10) [nM] |
| --- | --- | --- | --- | --- | --- | --- |
| (2-amino-4-oxo-3,4-dihydro-5H-pyrrolo[3,2-d]pyrimidin-5-yl)butyl)-2-fluorobenzoyl)-L-glutamic acid [AGF347] | 9.4 | ~ 10 fold | nearly complete loss | 224 | – | – |
| Nc1nc2ccn(CCCc3ccc(C(=O)N[C@@H](CCC(=O)O)C(=O)O)cc3)c2c(=O)[nH]1 [AGF291] | – | ~ 10 fold | nearly complete loss | – | 117 | 454 |
| Nc1nc2ccn(CCCCCc3ccc(C(=O)N[C@@H](CCC(=O)O)C(=O)O)s3)c2c(=O)[nH]1 [AGF320] | 156 | ~ 10 fold | nearly complete loss | > 1000 | – | – |
